Test results: patent US20220281821A1, “INDAZOLE COMPOUNDS AND THEIR PHARMACEUTICAL COMPOSITIONS” (Jinan University, priority 2019, published 2022)

Assays:
[1] = biological target: T1, TRKB (Homo sapiens, UniProt Q16620); experiment: Z′-LYTE kinase activity assay, TRKB; format: biochemical; conditions: ATP 25 uM
T1 construct: purchased life technologies PV3616
Text: (§1) Kinase activity assay: Z′-LYTE™ technology (detection by fluorescence, enzyme-conjugated format, based on the difference in sensitivity of phosphorylated and non-phosphorylated peptides to proteolytic cleavage) was applied, and using the principle of fluorescence resonance energy transfer (FRET), a Z′-LYTE™ FRET peptide substrate (Z′-LYTE™ Tyrosine 1 Peptide Substrate, Invitrogen, PV3190), and a secondary reaction were used to detect the inhibitory activity of the compounds on TRKs (TRK1, TRK2, TRK3) (life technologies, PV3144, PV3616, PV3617).
(§2) Enzymatic reaction: In a 384-well plate, 5 μL of an enzyme-substrate system (50 mM HEPES pH 7.5, 0.01% BRIJ-35, 10 mM MgCl2, 1 mM EGTA, 2 μM Tyr 01 Peptide Substrate) was added and 5 nL of compound (concentration gradient) was transferred thereto by using the echo520 ultramicro liquid pipetting system. […] After shaking and mixing, centrifuging was performed. A reaction was carried out at 30° C. in the dark for 1.5 hours.
(§3) The data were analyzed as follows:
(§4) Phosphorylation ratio=1−{(emission ratio×F100%−C100%)/[C0%−C100%+emission ratio×(F100%−F0%)]}×100;
(§5) Inhibition rate=100×(1−compound phosphorylation ratio/negative control phosphorylation ratio).
(§6) IC50 values were calculated by using GraphPad Prism 5.0 software.

[2] = biological target: T2, BaF3-CD74-NTRK1 (Homo sapiens, UniProt P04629); experiment: Cell proliferation inhibition (CCK-8), BaF3-CD74-NTRK1 stable strain; format: cell-based, mouse; conditions: BaF3-CD74-NTRK1, 72 hours
T2 construct: fused on or other part: P04233 (HLA class II histocompatibility antigen gamma chain)
Experimental: (§7) The brief steps of stable strain construction are as follows: construct a pCDNA3.1(+) plasmid vector carrying genes such as CD74-NTRK1, ETV6-NTRK2 and ETV6-NTRK3; the plasmid was electroporated into Ba/F3 cells using the Amaxa® Cell Line Nucleofector® Kit V; 48 hours after electroporated, G418 with a final concentration of 1000 μg/ml was added for screening for two weeks, and then IL3 was removed, and continued screening to obtain polyclonal stable strains; then single clones were selected by a limiting dilution method. The stable strains were then identified using positive drugs, WB and gene sequencing; and the monoclonal clones that were identified as completely correct may be used for the study of cell proliferation inhibitory activity of inhibitors.
(§8) Cell proliferation inhibition activity study: the cells in the logarithmic growth phase were seeded into 96-well plates at 8000-12000 cells/well, and inhibitors at different concentrations (0-10 μM) were added the next day, and incubation was continued for 72 hours; then 10 μL of CCK-8 reagent was added to each well, and the incubation was continued for 1-3 hours; and then use a super microplate reader to measure their absorbance values at 450 nm and 650 nm. The half-inhibition concentration (IC50) was calculated using GraphPad Prism 8.0.0.

[3] = biological target: T3, TRKC (Homo sapiens, UniProt Q16288); experiment: Z′-LYTE kinase activity assay, TRKC; format: biochemical; conditions: ATP 50 uM
T3 construct: purchased life technologies PV3617
Text: as §1, §2, §3, §6

[4] = biological target: T4, TRKA (Homo sapiens, UniProt P04629); experiment: Z′-LYTE kinase activity assay, TRKA; format: biochemical; conditions: ATP 400 uM
T4 construct: purchased life technologies PV3144
Text: as §1, §2, §3, §4, §5, §6

[5] = biological target: T5, BaF3-ETV6-NTRK3 (Homo sapiens, UniProt Q16288); experiment: Cell proliferation inhibition (CCK-8), BaF3-ETV6-NTRK3 stable strain; format: cell-based, mouse; conditions: BaF3-ETV6-NTRK3, 72 hours
T5 construct: fused on or other part: P41212 (Transcription factor ETV6)
Experimental: as §7, §8

[6] = biological target: T6, BaF3-ETV6-NTRK2 (Homo sapiens, UniProt Q16620); experiment: Cell proliferation inhibition (CCK-8), BaF3-ETV6-NTRK2 stable strain; format: cell-based, mouse; conditions: BaF3-ETV6-NTRK2, 72 hours
T6 construct: fused on or other part: P41212 (Transcription factor ETV6)
Experimental: as §7, §8

T5 sequence (Q16288 whole entry, the tested form may be a part): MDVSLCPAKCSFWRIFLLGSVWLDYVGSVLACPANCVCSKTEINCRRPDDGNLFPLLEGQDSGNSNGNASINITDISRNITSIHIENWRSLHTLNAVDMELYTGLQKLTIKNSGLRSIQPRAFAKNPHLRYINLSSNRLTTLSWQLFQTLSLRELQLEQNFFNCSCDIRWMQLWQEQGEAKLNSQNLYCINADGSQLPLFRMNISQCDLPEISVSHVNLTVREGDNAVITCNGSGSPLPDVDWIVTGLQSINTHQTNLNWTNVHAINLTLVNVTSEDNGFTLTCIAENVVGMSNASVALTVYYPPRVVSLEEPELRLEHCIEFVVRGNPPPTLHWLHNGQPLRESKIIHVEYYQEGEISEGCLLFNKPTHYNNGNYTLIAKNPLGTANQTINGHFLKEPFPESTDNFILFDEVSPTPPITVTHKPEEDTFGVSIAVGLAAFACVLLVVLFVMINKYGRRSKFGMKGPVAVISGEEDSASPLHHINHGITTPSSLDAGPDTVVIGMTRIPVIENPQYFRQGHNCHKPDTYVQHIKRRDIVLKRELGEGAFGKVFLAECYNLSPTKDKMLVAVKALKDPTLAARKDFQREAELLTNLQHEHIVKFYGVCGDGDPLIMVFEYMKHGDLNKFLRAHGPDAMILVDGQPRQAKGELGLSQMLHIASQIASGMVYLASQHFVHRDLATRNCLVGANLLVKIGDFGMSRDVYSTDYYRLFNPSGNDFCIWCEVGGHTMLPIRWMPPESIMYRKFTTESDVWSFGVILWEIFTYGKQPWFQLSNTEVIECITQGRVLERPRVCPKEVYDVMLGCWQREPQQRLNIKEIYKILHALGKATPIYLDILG
T6 sequence (Q16620 538-822 limits assumed): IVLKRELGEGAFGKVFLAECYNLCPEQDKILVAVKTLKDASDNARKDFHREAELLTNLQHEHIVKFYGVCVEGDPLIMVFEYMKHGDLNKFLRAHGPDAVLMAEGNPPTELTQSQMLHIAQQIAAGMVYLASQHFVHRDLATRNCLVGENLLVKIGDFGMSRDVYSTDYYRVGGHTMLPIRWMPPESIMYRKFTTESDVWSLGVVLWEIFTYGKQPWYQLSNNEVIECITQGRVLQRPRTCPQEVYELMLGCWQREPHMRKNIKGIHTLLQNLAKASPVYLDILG
T3 sequence (Q16288 32-839): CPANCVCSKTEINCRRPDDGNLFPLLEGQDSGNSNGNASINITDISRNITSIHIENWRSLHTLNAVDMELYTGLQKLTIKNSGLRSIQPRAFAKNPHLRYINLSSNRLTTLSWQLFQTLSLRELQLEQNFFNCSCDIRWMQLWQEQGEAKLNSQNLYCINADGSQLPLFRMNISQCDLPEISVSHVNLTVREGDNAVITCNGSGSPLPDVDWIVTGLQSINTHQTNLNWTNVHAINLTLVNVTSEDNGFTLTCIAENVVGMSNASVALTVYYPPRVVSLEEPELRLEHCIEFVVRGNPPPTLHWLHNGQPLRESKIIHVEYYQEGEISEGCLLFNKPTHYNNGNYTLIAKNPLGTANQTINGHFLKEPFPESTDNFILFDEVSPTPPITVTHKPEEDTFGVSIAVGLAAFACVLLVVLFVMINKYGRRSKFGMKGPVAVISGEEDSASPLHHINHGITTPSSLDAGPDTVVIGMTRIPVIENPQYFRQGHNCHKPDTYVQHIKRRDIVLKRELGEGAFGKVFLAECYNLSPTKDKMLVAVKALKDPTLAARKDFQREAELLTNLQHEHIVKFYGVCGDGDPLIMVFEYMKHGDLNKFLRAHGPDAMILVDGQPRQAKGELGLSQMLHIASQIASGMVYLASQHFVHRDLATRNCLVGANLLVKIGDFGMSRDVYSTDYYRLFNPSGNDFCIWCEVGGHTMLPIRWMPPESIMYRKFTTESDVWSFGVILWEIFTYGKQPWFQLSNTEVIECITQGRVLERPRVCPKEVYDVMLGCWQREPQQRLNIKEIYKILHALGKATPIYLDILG
T4 sequence (P04629 440-796 limits assumed): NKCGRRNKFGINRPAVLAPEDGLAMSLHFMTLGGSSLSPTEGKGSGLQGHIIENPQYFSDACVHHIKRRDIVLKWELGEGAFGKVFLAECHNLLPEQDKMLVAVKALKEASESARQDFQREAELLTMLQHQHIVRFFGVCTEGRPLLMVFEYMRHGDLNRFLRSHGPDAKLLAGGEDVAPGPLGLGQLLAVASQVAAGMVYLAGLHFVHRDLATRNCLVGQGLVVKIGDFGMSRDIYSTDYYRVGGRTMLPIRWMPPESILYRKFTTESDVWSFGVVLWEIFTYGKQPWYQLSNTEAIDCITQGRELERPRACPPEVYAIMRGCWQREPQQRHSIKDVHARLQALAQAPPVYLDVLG
T2 sequence (P04629 510-796 limits assumed): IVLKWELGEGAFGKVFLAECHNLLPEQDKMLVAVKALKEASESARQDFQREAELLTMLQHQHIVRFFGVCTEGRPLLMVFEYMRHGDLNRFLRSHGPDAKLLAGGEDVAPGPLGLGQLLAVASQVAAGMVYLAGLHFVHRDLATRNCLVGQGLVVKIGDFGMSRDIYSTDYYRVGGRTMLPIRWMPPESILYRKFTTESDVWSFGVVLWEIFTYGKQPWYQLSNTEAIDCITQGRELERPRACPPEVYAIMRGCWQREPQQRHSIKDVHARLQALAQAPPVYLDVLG
T1 sequence (Q16620 32-822): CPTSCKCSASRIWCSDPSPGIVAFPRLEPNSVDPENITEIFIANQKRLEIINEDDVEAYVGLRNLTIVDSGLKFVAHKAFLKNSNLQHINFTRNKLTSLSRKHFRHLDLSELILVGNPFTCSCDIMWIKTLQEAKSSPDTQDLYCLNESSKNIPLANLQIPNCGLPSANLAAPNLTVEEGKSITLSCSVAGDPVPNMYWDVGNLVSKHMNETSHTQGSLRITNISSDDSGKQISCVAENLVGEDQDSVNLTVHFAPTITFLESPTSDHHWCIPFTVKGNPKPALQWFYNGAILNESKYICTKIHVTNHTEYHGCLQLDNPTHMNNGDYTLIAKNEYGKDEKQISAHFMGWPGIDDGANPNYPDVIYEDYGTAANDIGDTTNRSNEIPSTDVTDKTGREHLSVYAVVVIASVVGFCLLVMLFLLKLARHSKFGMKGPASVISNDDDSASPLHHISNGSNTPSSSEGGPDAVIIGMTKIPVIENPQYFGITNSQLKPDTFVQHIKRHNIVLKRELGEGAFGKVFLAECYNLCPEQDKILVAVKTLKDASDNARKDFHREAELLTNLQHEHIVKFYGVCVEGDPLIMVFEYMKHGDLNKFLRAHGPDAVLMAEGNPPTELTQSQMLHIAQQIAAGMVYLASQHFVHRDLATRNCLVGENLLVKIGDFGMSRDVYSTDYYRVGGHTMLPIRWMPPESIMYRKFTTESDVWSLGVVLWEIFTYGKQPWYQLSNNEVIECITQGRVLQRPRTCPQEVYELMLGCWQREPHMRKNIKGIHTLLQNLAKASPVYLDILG

| IC50 [1] | IC50 [2] | IC50 [3] | IC50 [4] | IC50 [5] | IC50 [6] | SMILES |
| --- | --- | --- | --- | --- | --- | --- |
| 40 nM | 724 nM | 8 nM | 44 nM | 796 nM | 1990 nM | Fc1ccc(F)c(Cc2ccc3[nH]nc(C#Cc4ccccn4)c3c2)c1 [DYX-041, 5-(2,5-difluorobenzyl)-3-(pyridin-2-ylethynyl)-1H-indazole] |
| > 1000 nM | 7500 nM | 191 nM | 628 nM | 3310 nM | 3020 nM | Fc1cc(Cc2ccc3[nH]nc(/C=C/c4ccccn4)c3c2)cc(F)c1F [DYX-083, (E)-3-(2-(pyridin-2-yl)vinyl)-5-(3,4,5-trifluorobenzyl)-1H-indazole] |
| 9.8 nM | 156 nM | 3 nM | 3.3 nM | 96.2 nM | 178 nM | Fc1cc(F)cc(COc2ccc3[nH]nc(/C=C/c4ccccn4)c3c2)c1 [DYX-132, (E)-5-((3,5-difluorobenzyl)oxo)-3-(2-(pyridin-2-yl)vinyl)-1H-indazole] |
| 14.8 nM | 69 nM | 4.2 nM | 10.6 nM | 168 nM | 98.4 nM | Cc1cccc(/C=C/c2n[nH]c3ccc(Cc4cc(F)cc(F)c4)cc23)n1 [DYX-09, (E)-5-(3,5-difluorobenzyl)-3-(2-(6-methylpyridin-2-yl)vinyl)-1H-indazole] |
| > 1000 nM | > 10000 nM | 652 nM | 501 nM | > 10000 nM | > 10000 nM | Fc1ccc(Cc2ccc3[nH]nc(C#Cc4ccccn4)c3c2)cc1F [DYX-044, 5-(3,4-difluorobenzyl)-3-(pyridin-2-ylethynyl)-1H-indazole] |
| 15.3 nM | 803 nM | 9.7 nM | 33.2 nM | 959 nM | 168 nM | C(=C\c1n[nH]c2ccc(Cc3ccccc3)cc12)/c1ccccn1 [DYX-048, (E)-5-benzyl-3-(2-(pyridin-2-yl)vinyl)-1H-indazole] |
| 10 nM | 32.6 nM | 1.9 nM | 1.7 nM | 23.7 nM | 43.9 nM | Fc1cc(F)cc(CNc2ccc3[nH]nc(/C=C/c4ccccn4)c3c2)c1 [DYX-185, (E)-N-(3,5-difluorobenzyl)-3-(2-(pyridin-2-yl)vinyl)-1H-indazol-5-amine] |
| 3.2 nM | 630 nM | 18.8 nM | 9.2 nM | 394 nM | 777 nM | Fc1cc(F)cc(Cc2ccc3[nH]nc(/C=C/c4ccccc4F)c3c2)c1 [DYX-10, (E)-5-(3,5-difluorobenzyl)-3-(2-fluorostyryl)-1H-indazole] |
| 310 nM | 3060 nM | 200 nM | 51.7 nM | 2770 nM | 2610 nM | Fc1cc(F)cc(Oc2ccc3[nH]nc(C#Cc4ccccn4)c3c2)c1 [DYX-092, 5-(3,5-difluorophenoxy)-3-(pyridin-2-ylethynyl)-1H-indazole] |
| 281 nM | 8710 nM | 114 nM | 251 nM | 8380 nM | > 10000 nM | Fc1ccc(Cc2ccc3[nH]nc(/C=C/c4ccccn4)c3c2)cc1 [DYX-042, (E)-5-(4-fluorobenzyl)-3-(2-(pyridin-2-yl)vinyl)-1H-indazole] |
| > 1000 nM | > 10000 nM | > 1000 nM | > 1000 nM | > 10000 nM | > 10000 nM | Fc1ccc(Cc2ccc3[nH]nc(C#Cc4ccccn4)c3c2)cc1 [DYX-027, 5-(4-fluorobenzyl)-3-(pyridin-2-ylethynyl)-1H-indazole] |
| 71.3 nM | 2900 nM | 20 nM | 31.3 nM | 2210 nM | 1610 nM | Fc1cc(F)cc(COc2ccc3[nH]nc(C#Cc4ccccn4)c3c2)c1 [DYX-131, 5-((3,5-difluorobenzyl)oxo)-3-(pyridin-2-ylethynyl)-1H-indazole] |
| 82 nM | 2330 nM | 12 nM | 26 nM | 917 nM | 2560 nM | Fc1cccc(Cc2ccc3[nH]nc(C#Cc4ccccn4)c3c2)c1 [DYX-025, 5-(3-fluorobenzyl)-3-(pyridin-2-ylethynyl)-1H-indazole] |
| 170 nM | 1440 nM | 26.6 nM | 39.8 nM | 820 nM | 1020 nM | Fc1cccc(F)c1Cc1ccc2[nH]nc(/C=C/c3ccccn3)c2c1 [DYX-081, (E)-5-(2,6-difluorobenzyl)-3-(2-(pyridin-2-yl)vinyl)-1H-indazole] |
| 37.1 nM | 264 nM | 16.6 nM | 9.1 nM | 503 nM | 667 nM | Fc1cc(F)cc(NCc2ccc3[nH]nc(/C=C/c4ccccn4)c3c2)c1 [DYX-191, (E)-3,5-difluoro-N-((3-(2-(pyridin-2-yl)vinyl)-1H-indazol-5-yl)methyl)aniline] |
| > 1000 nM | > 10000 nM | > 1000 nM | > 1000 nM | > 10000 nM | > 10000 nM | Fc1ccc(Cc2ccc3[nH]nc(C#Cc4ccccn4)c3c2)c(F)c1 [DYX-051, 5-(2,4-difluorobenzyl)-3-(pyridin-2-ylethynyl)-1H-indazole] |
| 80.8 nM | 2420 nM | 21.9 nM | 33.8 nM | 3180 nM | 3720 nM | Cc1cccc(Cc2ccc3[nH]nc(/C=C/c4ccccn4)c3c2)c1 [DYX-137X, (E)-5-(3-methylbenzyl)-3-(2-(pyridin-2-yl)vinyl)-1H-indazole] |
| 7 nM | 411 nM | 2.8 nM | 1.2 nM | 155 nM | 175 nM | O=S(=O)(c1cc(F)cc(F)c1)c1ccc2[nH]nc(/C=C/c3ccccn3)c2c1 [DYX-114, (E)-5-((3,5-difluorophenyl)sulfonyl)-3-(2-(pyridin-2-yl)vinyl)-1H-indazole] |
| > 1000 nM | 3080 nM | 155 nM | 318 nM | 3100 nM | 2460 nM | O=S(=O)(c1cc(F)cc(F)c1)c1cc2c(/C=C/c3ccccn3)n[nH]c2cn1 [DYX-149, (E)-5-((3,5-difluorophenyl)sulfonyl)-3-(2-(pyridin-2-yl)vinyl)-1H-pyrazolo[3,4-c]pyridine] |
| 6.5 nM | 12.6 nM | 1.3 nM | 1.1 nM | 7.2 nM | 8.7 nM | Fc1ccc(F)c(CNc2ccc3[nH]nc(/C=C/c4ccccn4)c3c2)c1 [DYX-216A, (E)-N-(2,5-difluorobenzyl)-3-(2-(pyridin-2-yl)vinyl)-1H-indazol-5-amine] |
| > 1000 nM | > 10000 nM |  | 598 nM | > 10000 nM | > 10000 nM | Fc1cc(F)cc(C#Cc2ccc3[nH]nc(/C=C/c4ccccn4)c3c2)c1 [DYX-183, (E)-5-((3,5-difluorophenyl)ethynyl)-3-(2-(pyridin-2-yl)vinyl)-1H-indazole] |
| 353 nM |  | 226 nM |  | 2270 nM | 2620 nM | Fc1cc(F)cc(Nc2ccc3[nH]nc(/C=C/c4ccccn4)c3c2)c1 [DYX-105, (E)-N-(3,5-difluorophenyl)-3-(2-(pyridin-2-yl)vinyl)-1H-indazol-5-amine] |
